Results as given in US10774052B2, “Heteroaryl compounds and uses thereof” (Celgene CAR LLC, priority 2013, dated 2020).
“Also recorded” adds a separate entry of the source. Like-named read-outs stand apart in the source and are kept apart here.

Experiments:
Format in all cases: cell-based
[1] = system: pFGFR4 in MDA-MB-453 cells; assay: Washout experiment (duration of action on pFGFR4); conditions: 1000-2000 nM for 1 hr, washed, up to 24 hr
Procedure: The cells were allowed to settle down for 4 hrs and were then maintained in low-serum (0.1% FBS) media overnight.
The following morning, the media was removed and the cells were treated with 1000-2000 nM of test compound in low-serum media for 1 hr. The cells were washed free of test compound (3×) with PBS (Invitrogen). One set of cells was immediately lysed as indicated above as the 0 hr time point. The remaining cells were incubated with the appropriate complete growth media (10-20% FBS) for 1, 2, 4, 8, 16 (in certain circumstances) and 24 hr. DMSO (0.5%) controls were collected at all time points.

pFGFR4 in Huh7 cells = assay: FGFR4 signaling, pFGFR4 (Huh); MSD (Method B); conditions: Homo sapiens
[2] = system: pFGFR4 in MDA-MB-453 cells; assay: FGFR4 signaling, pFGFR4 (MDA); Western blot (Method A), MSD (Method B), ELISA (Method C); conditions: Homo sapiens
[3] = MDA-MB-453 cells, Method B (MSD) for signaling EC50 determination
[4] = Huh-7, Huh7 cells, read-out: Signaling EC50 (nM) pFGFR4 (Huh)

Row | EC50 [2, 3] | EC50 (pFGFR4 in Huh7 cells; [4]) | EC50 ([2]; MDA-MB-453 cells, Method A (Western blot) for signaling EC50 determination) | Structure (SMILES) | duration of action against pFGFR4 signalling post washout [1] | EC50 (pFGFR4 in Huh7 cells; Huh-7, read-out: Signaling EC50 (nM) pFGFR4 (Huh)) | EC50 ([2]; MDA-MB-453, MDA-MB-453 cells, Method B (MSD) for signaling EC50 determination)
1 | < 100 nM | < 100 nM | – | C=CC(=O)Nc1ccccc1Nc1ncc2c(n1)N(Cc1cccc(NC(=O)CC)c1)C(=O)N(c1c(Cl)c(OC)cc(OC)c1Cl)C2 [Compound I-1] | prolonged duration of action; also recorded: has PDA | – | –
2 | – | – | 101 to 500 nM | CCC(=O)Nc1cccc(CN2C(=O)N(c3c(Cl)c(OC)cc(OC)c3Cl)Cc3cnc(Nc4ccccc4NC(=O)CC)nc32)c1 [Compound I-234] | does not show prolonged duration of action; also recorded: does not have PDA | – | –
3 | < 100 nM | < 100 nM | – | COc1cc(OC)c(Cl)c(N2Cc3cnc(Nc4ccccc4)nc3N(C)C2=O)c1Cl [Compound I-238] | – | – | –

Row | Structure (SMILES) | EC50 [2, 3] | EC50 (pFGFR4 in Huh7 cells; [4]) | EC50 ([2]; MDA-MB-453 cells, Method A (Western blot) for signaling EC50 determination) | duration of action against pFGFR4 signalling post washout [1] | EC50 (pFGFR4 in Huh7 cells; Huh-7, read-out: Signaling EC50 (nM) pFGFR4 (Huh)) | EC50 ([2]; MDA-MB-453, MDA-MB-453 cells, Method B (MSD) for signaling EC50 determination)
4 | C=CC(=O)NC1CCCCC1Nc1ncc2c(n1)N(Cc1cscn1)C(=O)N(c1c(Cl)c(OC)cc(OC)c1Cl)C2 (racemic) [Compound I-69] | < 100 nM | – | – | prolonged inhibition of autophosphorylation of FGFR4; also recorded: prolonged duration of action | 101 to 500 nM | –
5 | C=CC(=O)N[C@H]1COC[C@H]1Nc1ncc2c(n1)N(C)C(=O)N(c1c(Cl)c(OC)cc(OC)c1Cl)C2 [Compound I-186] | – | < 100 nM | – | – | – | < 100 nM
